Experimental data taken from the supplement of paper PMC10331698.
± gives the standard deviation of the averaged measurements.

Tests used:
Assay in all cases: level (log10 ratio to DMSO vehicle control); higher = higher biomarker level / cell amount than vehicle control
[1] = compound: C=C(C)C(=O)OCCC(F)(F)C(F)(F)C(F)(F)C(F)(F)C(F)(F)C(F)(F)F [6:2 Fluorotelomer methacrylate]; details: in DMSO
Procedure: (§1)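 BioMAP Diversity Plus panel of 12 human primary cell co-culture systems (3C, 4H, LPS, SAg, BT, BF4T, BE3C, CASM3C, HDF3CGF, KF3CT, MyoF, Mphg). Compounds were added 1 h before stimulation and left for 24 h (MyoF 48 h; BT 72 h for soluble read-outs or 6 d for IgG). Biomarkers were read by ELISA, cytotoxicity by SRB, PBMC viability and proliferation by Alamar Blue. Each well value was divided by the mean of 8 DMSO control wells on the same plate and log10 transformed; duplicate blinded samples were tested at 4 concentrations.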

Heptafluorobutyl iodide = compound: FC(F)(F)C(F)(F)C(F)(F)CI [Heptafluorobutyl iodide]; details: in DMSO
Procedure: as §1

[2] = compound: O=S(=O)(O)C(F)(F)C(F)(F)C(F)(F)C(F)(F)C(F)(F)C(F)(F)C(F)(F)C(F)(F)C(F)(F)C(F)(F)F [Sodium perfluorodecanesulfonate]; details: in DMSO
Procedure: as §1

[3] = compound: COC(=O)C(F)(F)C(F)(F)OC(F)(C(F)(F)F)C(F)(F)OC(F)=C(F)F [Methyl perfluoro(3-(1-ethenyloxypropan-2-yloxy)propanoate)]; details: in DMSO
Procedure: as §1

[4] = compound: C=CC(=O)OCC(F)(F)C(F)(F)C(F)(F)COC(=O)C=C [1H,1H,5H,5H-Perfluoro-1,5-pentanediol diacrylate]; details: 6700 nM; in DMSO
Procedure: as §1

[5] = compound: O=C(O)C(F)(F)C(F)(F)C(F)(F)C(F)(F)C(F)(F)C(F)(F)C(F)(F)C(F)(F)C(F)(F)C(F)F [11-H-Perfluoroundecanoic acid]; details: in DMSO
Procedure: as §1

[6] = compound: FC(F)(F)C(F)(F)C(F)(F)C(F)(F)C(F)(F)C(F)(F)C(F)(F)I [1-Iodopentadecafluoroheptane]; details: in DMSO
Procedure: as §1

[7] = compound: O=C(O)C=CC(F)(C(F)(F)F)C(F)(F)F [3-(Perfluoroisopropyl)-2-propenoic acid]; details: in DMSO
Procedure: as §1

Test System	level (log10) ([1]; 6700 nM)	level (log10) ([1]; 20000 nM)	level (log10) ([1]; 60000 nM)	level (log10) (Heptafluorobutyl iodide; 6700 nM)	level (log10) (Heptafluorobutyl iodide; 20000 nM)	level (log10) (Heptafluorobutyl iodide; 60000 nM)	level (log10) ([2]; 1500 nM)	level (log10) ([2]; 4400 nM)	level (log10) ([2]; 13000 nM)	level (log10) ([2]; 40000 nM)	level (log10) ([3]; 6700 nM)	level (log10) ([3]; 20000 nM)	level (log10) [4]	level (log10) ([5]; 6700 nM)	level (log10) ([5]; 20000 nM)	level (log10) ([6]; 6700 nM)	level (log10) ([6]; 20000 nM)	level (log10) ([7]; 6700 nM)	level (log10) ([7]; 20000 nM)	level (log10) ([7]; 60000 nM)
HDF3CGF:Proliferation 72hr	-0.0385 ± 0.035	-0.0525 ± 0.015	-0.0545 ± 0.0021	0.0025 ± 0.0064	-0.012 ± 0.0099	-0.0085 ± 0.039	0.098 ± 0.023	0.23 ± 0.037	0.316 ± 0.013	0.301 ± 0.021	0.076 ± 0.018	-0.163 ± 0.079	-0.689 ± 0.0099	-0.253 ± 0.048	-0.443 ± 0.0028	-0.0275 ± 0.005	-0.135 ± 0.02	-0.033 ± 0.083	0.0165 ± 0.086	0.04 ± 0.073
HDF3CGF:SRB	0.02 ± 0.0071	0.0315 ± 0.005	0.033 ± 0.013	-0.0315 ± 0.012	0.0025 ± 0.037	0.0275 ± 0.04	0.014 ± 0.0099	-0.0075 ± 0.035	0.104 ± 0.0092	0.198	0.0845 ± 0.0035	0.081 ± 0.0042	-0.458 ± 0.051	0.03 ± 0.0014	0.111 ± 0.024	0.013 ± 0.021	-0.002 ± 0.016	-0.014 ± 0.055	0.0205 ± 0.011	-0.0055 ± 0.022
HDF3CGF:TIMP-1	-0.049 ± 0.028	-0.0115 ± 0.0078	-0.0055 ± 0.0035	-0.0195 ± 0.037	-0.019 ± 0.0085	-0.059 ± 0.025	-0.0355 ± 0.04	0.0065 ± 0.0035	0.0265 ± 0.042	0.156 ± 0.016	0.0565 ± 0.011	0.117 ± 0.021	-0.245 ± 0.011	0.0005 ± 0.096	0.1 ± 0.072	-0.0185 ± 0.0021	-0.024 ± 0.0042	-0.006 ± 0.014	0.0105 ± 0.015	0.007 ± 0.0057
HDF3CGF:TIMP-2	0.0065 ± 0.087	0.018 ± 0.085	0.022 ± 0.082	-0.033 ± 0.0042	-0.044 ± 0.0071	-0.013 ± 0.051	-0.026 ± 0.11	0.0395 ± 0.0035	0.005 ± 0.052	-0.085 ± 0.089	-0.043 ± 0.0028	-0.051 ± 0.028	0.0805 ± 0.016	-0.0675 ± 0.046	-0.103 ± 0.025	0.015 ± 0.0057	0.0035 ± 0.0035	-0.0105 ± 0.0021	-0.0045 ± 0.011	-0.0115 ± 0.012
KF3CT:CCL2/MCP-1	-0.051 ± 0.021	-0.0475 ± 0.005	-0.0235 ± 0.005	-0.0045 ± 0.0021	-0.018 ± 0.013	0.0195 ± 0.016	0.037 ± 0.0099	-0.0155 ± 0.042	-0.0485 ± 0.029	-0.023 ± 0.038	-0.015 ± 0.0014	0.01 ± 0.0099	-0.0955 ± 0.018	-0.043 ± 0.021	-0.129 ± 0.0078	0.0065 ± 0.0092	0.0015 ± 0.016	-0.012 ± 0.017	0 ± 0.027	0.0105 ± 0.053
KF3CT:CXCL8/IL-8	-0.004 ± 0.0057	0.0085 ± 0.011	-0.007 ± 0.011	-0.0095 ± 0.00071	-0.0325 ± 0.005	-0.015 ± 0.016	0 ± 0.044	-0.0125 ± 0.0064	-0.0175 ± 0.012	-0.0105 ± 0.005	0.001 ± 0.025	0.034 ± 0.014	-0.041 ± 0.027	0.0005 ± 0.019	0.0445 ± 0.012	0.0135 ± 0.0021	0.014 ± 0.0028	0.001 ± 0.013	0.0085 ± 0.028	0.018 ± 0.0014
KF3CT:CXCL9/MIG	0.012 ± 0.0042	0.01 ± 0.0028	0.01 ± 0.02	-0.005 ± 0.0014	-0.008 ± 0.013	-0.003 ± 0.0071	0.0005 ± 0.0064	-0.0045 ± 0.0021	0.0015 ± 0.0092	0 ± 0.0042	-0.013 ± 0.013	-0.0105 ± 0.025	-0.0275 ± 0.013	-0.006 ± 0.0042	-0.028 ± 0.0028	0.0115 ± 0.022	0.012 ± 0.014	-0.0005 ± 0.012	0.0005 ± 0.011	0 ± 0.0028
KF3CT:IL-1alpha	-0.033 ± 0.025	-0.0395 ± 0.029	-0.0335 ± 0.026	-0.0025 ± 0.0078	-0.04 ± 0.0042	-0.044 ± 0.0057	0.0125 ± 0.018	-0.0295 ± 0.005	-0.0545 ± 0.0035	-0.045 ± 0.02	0.054 ± 0.02	0.071 ± 0.014	-0.125 ± 0.02	-0.0255 ± 0.00071	0.0105 ± 0.04	-0.006 ± 0.0042	-0.004 ± 0.0071	-0.0025 ± 0.0064	0.0025 ± 0.0092	0.001 ± 0.017
KF3CT:MMP-9	-0.0275 ± 0.056	-0.0145 ± 0.03	-0.009 ± 0.0042	-0.0195 ± 0.035	-0.0185 ± 0.033	-0.005 ± 0.021	-0.01 ± 0.0085	-0.0325 ± 0.0078	-0.0735 ± 0.012	-0.139 ± 0.036	-0.0375 ± 0.0021	-0.054 ± 0.0071	-0.0525 ± 0.043	-0.0735 ± 0.011	-0.298 ± 0.0071	-0.05 ± 0.11	-0.0495 ± 0.056	-0.0175 ± 0.016	0.006 ± 0.0071	0.018 ± 0.014
KF3CT:PAI-I	-0.0465 ± 0.018	-0.035 ± 0.016	-0.0535 ± 0.03	0.0005 ± 0.0035	-0.0185 ± 0.016	-0.008 ± 0.0071	-0.0085 ± 0.046	-0.021 ± 0.013	-0.0415 ± 0.0035	-0.0715 ± 0.028	0.0045 ± 0.019	-0.0045 ± 0.012	0.014 ± 0.0028	-0.0025 ± 0.03	-0.12 ± 0.044	-0.0055 ± 0.04	-0.0275 ± 0.028	0.0045 ± 0.0092	0.023 ± 0.0085	0.0165 ± 0.0021
KF3CT:SRB	-0.005 ± 0.0085	0	-0.001 ± 0.0057	-0.002 ± 0.0028	0 ± 0.0042	0.001 ± 0.016	0.006 ± 0.011	0 ± 0.0042	-0.003 ± 0.0028	0.0095 ± 0.016	0.005 ± 0.013	0.0125 ± 0.0078	-0.01 ± 0.0085	-0.01 ± 0.017	-0.012 ± 0.0014	0.0015 ± 0.0064	0.005 ± 0.0057	-0.005	-0.009 ± 0.0014	0.002 ± 0.013
KF3CT:TIMP-2	-0.0445 ± 0.0064	0.008 ± 0.013	0.022 ± 0.038	-0.023 ± 0.018	0.0135 ± 0.00071	-0.0125 ± 0.015	-0.0205 ± 0.056	-0.015	0.044 ± 0.02	0.005 ± 0.034	0.0105 ± 0.018	0.0265 ± 0.0092	-0.056 ± 0.021	-0.001 ± 0.0071	-0.012 ± 0.0071	-0.009 ± 0.021	-0.0225 ± 0.00071	-0.01 ± 0.013	0.007 ± 0.031	0.0205 ± 0.023
KF3CT:uPA	-0.016 ± 0.013	-0.011 ± 0.023	-0.0015 ± 0.0078	0.003 ± 0.0014	-0.0155 ± 0.011	-0.014 ± 0.0028	-0.0325 ± 0.016	0.0025 ± 0.018	-0.001 ± 0.037	0.0035 ± 0.0021	0.014 ± 0.021	0.0325 ± 0.019	-0.0035 ± 0.013	-0.003	0.0055 ± 0.0092	-0.014 ± 0.013	0.0105 ± 0.044	0.0095 ± 0.0064	0.0045 ± 0.0078	0.004 ± 0.02
LPS:CCL2/MCP-1	-0.007 ± 0.05	-0.014 ± 0.034	-0.043	0.008 ± 0.041	0.0035 ± 0.013	0.027 ± 0.024	-0.0165 ± 0.011	-0.041 ± 0.0085	-0.0235 ± 0.033	-0.0655 ± 0.077	-0.0235 ± 0.00071	0.013 ± 0.025	-0.042 ± 0.014	-0.009 ± 0.0085	-0.022 ± 0.0099	0.0035 ± 0.00071	0.0225 ± 0.0021	0.004 ± 0.0085	-0.0155 ± 0.013	-0.0015 ± 0.0021
